In publication PMC12603070, “A high-throughput screening approach to discover potential colorectal cancer chemotherapeutics: repurposing drugs to identify novel disruptors of 14-3-3 proteins” (Cell Death & Disease, 2025):
Like-named read-outs stand apart in the source and are kept apart here.

Columns and labels:
[1] = target: T1, 14-3-3ζ:BAD-112-136F interactions (Homo sapiens, UniProt P63104); experiment: BRET sensor screen for disruption of 14-3-3ζ-Rluc8:BAD-112-136F-mCitrine in living NIH-3T3 cells; assay type: cell-based, murine; set-up: inhibition: dose or concentration left out as unconfirmed; BRET reduction on NIH-3T3: unit not given here; settings: for inhibition at 20 µM / inhibition: NIH3T3, 3 h, read-out: BRET reduction on NIH-3T3
T1 construct: expressed in transfected cells; host or cells: NIH-3T3 fibroblasts, bi-directional pBI-CMV1 plasmid
T1 sequence (P63104 1-245): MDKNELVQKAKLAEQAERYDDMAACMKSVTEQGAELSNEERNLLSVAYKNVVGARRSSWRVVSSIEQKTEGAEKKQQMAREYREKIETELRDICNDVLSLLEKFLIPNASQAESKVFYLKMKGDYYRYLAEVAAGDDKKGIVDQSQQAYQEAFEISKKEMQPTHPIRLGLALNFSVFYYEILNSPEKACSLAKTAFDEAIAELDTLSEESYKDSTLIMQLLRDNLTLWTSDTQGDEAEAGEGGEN
Procedure, shortened: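 NIH-3T3 cells were transfected with the BRET sensor two days beforehand, then replated on poly-L-ornithine-coated plates and grown 24 h at 37 °C. Medium was then replaced with Krebs buffer (pH 7.4). Z′-score was calculated to judge HTS robustness.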

NIH-3T3 cells = experiment: Hoechst/propidium iodide cell death assay in NIH-3T3; assay type: cell-based; settings: for cytotoxicity at 20 µM: Mus musculus, NIH3T3, 24 h, read-out: Percentage of cell death % 24h NIH3t3
Description: (§1) A high-content imaging system (PerkinElmer; Operetta CLS), was used to quantify cell death and apoptosis by calculating the number of propidium iodide-positive cells relative to Hoechst-positive cells, and the number of Annexin V-positive cells relative to Hoechst-positive cells, respectively.

HT-29 cells = experiment: Hoechst/propidium iodide cell death assay in HT-29; assay type: cell-based, human; settings: for cytotoxicity at 20 µM: Homo sapiens; for %Cell death HT-29: time not given
Description: as §1

Caco-2 cells = assay type: cell-based; settings: for Percentage of cell death % 24h CACO-2: 20 µM; for Percentage of cell death % 48h, Caco-2: 20 μM
Description: as §1

[2] = test system: HT-29 and Caco-2 CRC cells; experiment: Cell death in CRC cells, statements covering both HT-29 and Caco-2 (screen at 20 µM, dose-response); assay type: cell-based, human
Procedure: Cells were plated at a density of 20,000 cells/well into 96-well plates (PerkinElmer; #6055302) and incubated overnight at 37 °C before the addition of the drugs. One hour prior to imaging, Hoechst 33342 (Invitrogen, #H3570) and propidium iodide (Invitrogen; #P3566) were added to the wells to achieve final concentrations of 50 ng/ml and 0.5 μg/ml, respectively. To measure apoptosis, AlexaFluor 488-conjugated Annexin V (ThermoFisher, Massachusetts, USA; #A13201) was also added at a dilution of 1:400 from the commercial stock. A high-content imaging system (PerkinElmer; Operetta CLS), was used to quantify cell death and apoptosis by calculating the number of propidium iodide-positive cells relative to Hoechst-positive cells, and the number of Annexin V-positive cells relative to Hoechst-positive cells, respectively. To assess caspase-dependent apoptosis, cells were pre-treated for 30 min with the caspase inhibitor Z-VAD-FMK (BD Biosciences, New Jersey, USA; #550377; 20 μM) or the negative control Z-FA-FMK (BD Biosciences; #550411; 20 μM) prior to the incubation of drugs.

[3] = NIH-3T3 cells, hits from the primary screen
[4] = HT-29, 24 h, read-out: Percentage of cell death % 24h HT-29
[5] = HT-29, 48 h, read-out: Percentage of cell death % 48h, HT-29
[6] = NIH-3T3 expressing BRET sensor, 20 µM, 3 h
[7] = HT-29, 24 h, 20 µM, 24 h, read-out: Percentage of cell death % 24h HT-29
[8] = HT-29, 48 h, HT-29, 48h, 20 μM, read-out: Percentage of cell death % 48h, HT-29

| Compound | inhibition [1, 3] [%] | inhibition at 20 µM [1, 6] [%] | inhibition at 20 µM [1] [%] | BRET reduction on NIH-3T3 [1, 3] | cytotoxicity at 20 µM (NIH-3T3 cells) [%] | Percentage of cell death % 48h, NIH3T3 (NIH-3T3 cells) [%] | cytotoxicity at 20 µM (HT-29 cells; [4]) [%] | cytotoxicity at 20 µM (HT-29 cells; [5]) [%] | Percentage of cell death % 24h CACO-2 (Caco-2 cells) [%] | Percentage of cell death % 48h, Caco-2 (Caco-2 cells) [%] | cytotoxicity at 20 µM (NIH-3T3 cells; 20 µM, 24 h) [%] | cytotoxicity at 20 µM (HT-29 cells; [7]) [%] | cytotoxicity at 20 µM (HT-29 cells; [8]) [%] | %Cell death HT-29 (HT-29 cells; HT-29) [%] | %Cell death Caco-2 (Caco-2 cells; time not given, text says 48 h) [%] | also measured |
| --- | --- | --- | --- | --- | --- | --- | --- | --- | --- | --- | --- | --- | --- | --- | --- | --- |
| Cc1ccc(C(=O)Nc2ccc(CN3CCN(C)CC3)c(C(F)(F)F)c2)cc1C#Cc1cnc2cccnn12 [Ponatinib (AP24534), Ponatinib] |  |  | 44.7 | 44.6783 | 73.5 | 54.2208 | 56.7 | 83.2 | 28.4678 | 42.5244 |  |  |  |  |  |  |
| COc1cc(C(=O)O)ccc1NC(=O)[C@@H]1N[C@@H](CC(C)(C)C)[C@](C#N)(c2ccc(Cl)cc2F)[C@H]1c1cccc(Cl)c1F [RG7388] | 41.6 | 41.6 |  |  |  | 20.6788 |  |  | 4.882 | 4.655 | 35.1 | 9.54 | 50 |  |  |  |
| C[C@H]1O[C@@H](O[C@H]2CC[C@@]3(C)[C@@H](CC[C@]4(C)[C@@H]3C=C[C@]35OC[C@@]6(CCC(C)(C)C[C@H]63)[C@@H](O)C[C@]54C)[C@]2(C)CO)[C@H](O)[C@@H](O[C@@H]2O[C@H](CO)[C@@H](O)[C@H](O)[C@H]2O)[C@H]1O [Saikosaponin A] |  |  | 53.8 | 53.7827 | 80.7 | 80.787 | 93.8 | 87.6 |  |  |  |  |  | 87.6 |  | %Cell death Caco-2 (Caco-2 cells): 1.2% |
| COc1ccc2c(O[C@@H]3C[C@H]4C(=O)N[C@]5(C(=O)NS(=O)(=O)C6CC6)C[C@H]5/C=C\CCCCN(C)C(=O)[C@@H]4C3)cc(-c3nc(C(C)C)cs3)nc2c1C [Simeprevir] | 42.6 | 42.6 |  |  |  | 93.5636 |  |  | 3.948 | 5.542 | 19.3 | 38.8 | 70.9 | 70.9 | 5.5 |  |
| Oc1cc(Cl)ccc1Oc1ccc(Cl)cc1Cl [Triclosan] |  |  | 35.6 | 35.6098 | 58.2 | 20.8092 | 20.3 | 21.6 | 23.0449 | 14.8508 |  |  |  |  |  |  |
| Ivermectin |  |  |  | 41.4556 |  | 70.901 |  |  | 4.453 | 5.173 |  |  |  | 78.9 | 5.2 | BRET reduction on NIH-3T3 [1, 6]: 41.4556; Percentage of cell death % 24h NIH3t3 (NIH-3T3 cells; 20 µM, 24 h): 38.0218%; Percentage of cell death % 24h HT-29 (HT-29 cells; 20 µM, 24 h): 6.036%; Percentage of cell death % 48h, HT-29 (HT-29 cells; HT-29, 48h, 20 μM): 78.9396% |

The next lines start with results.

| inhibition [1, 3] [%] | inhibition at 20 µM [1, 6] [%] | Compound | inhibition at 20 µM [1] [%] | BRET reduction on NIH-3T3 [1, 3] | cytotoxicity at 20 µM (NIH-3T3 cells) [%] | Percentage of cell death % 48h, NIH3T3 (NIH-3T3 cells) [%] | cytotoxicity at 20 µM (HT-29 cells; [4]) [%] | cytotoxicity at 20 µM (HT-29 cells; [5]) [%] | Percentage of cell death % 24h CACO-2 (Caco-2 cells) [%] | Percentage of cell death % 48h, Caco-2 (Caco-2 cells) [%] | cytotoxicity at 20 µM (NIH-3T3 cells; 20 µM, 24 h) [%] | cytotoxicity at 20 µM (HT-29 cells; [7]) [%] | cytotoxicity at 20 µM (HT-29 cells; [8]) [%] | %Cell death HT-29 (HT-29 cells; HT-29) [%] | %Cell death Caco-2 (Caco-2 cells; time not given, text says 48 h) [%] | also measured |
| --- | --- | --- | --- | --- | --- | --- | --- | --- | --- | --- | --- | --- | --- | --- | --- | --- |
| 25.6 | 25.6 | CCCSc1nc(N[C@@H]2C[C@H]2c2ccc(F)c(F)c2)c2nnn([C@@H]3C[C@H](OCCO)[C@@H](O)[C@H]3O)c2n1 [Ticagrelor] |  |  |  | 5.069 |  |  | 3.005 | 3.049 | 13.7 | 1.2 | 3.67 |  |  |  |
| 26.5 | 26.5 | COc1cc2nccc(Oc3ccc(NC(=O)Nc4cc(C)on4)c(Cl)c3)c2cc1OC [Tivozanib (AV-951), Tivozanib] |  |  |  | 31.2285 |  |  | 5.391 | 6.001 | 10.8 | 1.65 | 23 |  |  |  |
| 41.6 | 41.6 | CC(C)(C)C#Cc1cc(N(C(=O)[C@H]2CC[C@H](C)CC2)[C@H]2CC[C@H](O)CC2)c(C(=O)O)s1 [VX-222 (VCH-222, Lomibuvir), Lomibuvir] |  |  |  | 38.6762 |  |  | 4.951 | 36.3165 | 5.5 | 3.68 | 78.5 | 78.5 | 36.3 | Lowest concentration that significantly induced cell death ([2]; dose-response 2.5-20 µM in HT-29 and Caco-2): 5 µM; Efficacy in the magnitude of cell death attained ([2]; dose-response in CRC cells): inferior to other candidates |
| 35.4 | 35.4 | Cc1ccc(Sc2ccccc2N2CCNCC2)c(C)c1 [Vortioxetine (Lu AA21004) HBr, Vortioxetine] |  |  |  | 71.7539 |  |  | 33.0298 | 76.1709 | 78.5 | 7.35 | 52.1 | 52.1 | 52.1 |  |
